Measurements taken from patent US20180273564A1, “CARBON MONOXIDE RELEASING MOLECULES” (AUCKLAND UNISERVICES LIMITED, priority 2015, published 2018).
Values joined by “and” are separate entries in the source; they are usually repeats but may differ in a detail not shown here. Equal entries are not always repeated. “Also recorded” adds a separate entry of the source.

How the values were obtained:
[1] = Solubility in water
[2] = test system: HCT116 (colon cancer cells); test: In vitro anticancer activity, sulforhodamine B assay; type: cell-based; details: HCT116, 72 h compound exposure, mean of 3 independent experiments
Description: (§1) HCT116 (colon cancer cells) and NCI-H460 (large cell lung carcinoma) cells were supplied by ATCC, while SiHa cells (cervical cancer) were supplied by Dr. David Cowan, Ontario Cancer Institute, Canada. Cells were maintained in αMEM (Life Technologies) with 5% FCS (fetal calf serum from Moregate Biotech) at 37° C. in a humidified incubator with 5% CO2. Cells were seeded at the appropriate density and allowed to settle for 24 hours, before the compounds (in 0.5% DMSO at the highest concentration) were added at 3-fold serial dilutions. After 72 h compound exposure, the cells were fixed with 10% TCA (trichloroacetic acid from Merck Millipore) for 1 h at 4° C., then washed before addition of 50 μl of 0.4% sulforhodamine B solution (Sigma Aldrich) for 30 min at room temperature in the dark. After washing with 1% acetic acid, the aminoxanthene dye was solubilised with 100 μl/well unbuffered Tris base (10 mM; Serva) on an orbital shaker for at least 30 min in the dark. The optical density was measured on a BioTek EL808 microplate reader at an absorbance of 490 and 450 nm (reference wavelength) and was used to determine the percentage of cell-growth inhibition. IC50 values were calculated with SigmaPlot12.5 using a three-parameter logistic sigmoidal dose-response curve between the calculated growth inhibition and the compound concentration.

[3] = test system: NCI-H460 (large cell lung carcinoma) cells; test: as above; type: cell-based; details: NCI-H460, 72 h compound exposure, mean of 3 independent experiments
Description: as §1

[4] = test system: SiHa cells (cervical cancer); test: as above; type: cell-based; details: 72 h compound exposure, mean of 3 independent experiments
Description: as §1

[5] = test system: cancer cell lines (HCT116, NCI-H460, SiHa); test: In vitro anticancer activity, statements over all cell lines tested; details: 72 h compound exposure
Description: as §1

Compound: O=C(Nc1cc[n+](Cc2ccccc2)cc1)c1ccccn1.[C-]#[O+].[C-]#[O+].[C-]#[O+].[Cl][Ru-]([Cl])[Cl] [Compound 1, [HL][Ru(CO)3Cl3]]
- Solubility in water [1]: 1.45 mM
- IC50 [2]: 24 µM
- IC50 [3]: 73 µM
- IC50 [4]: 26 µM
- cytotoxicity to cancer cell lines [5]: most active compound in all cancer cell lines tested; also recorded: moderately cytotoxic

Compound: CC[N+](CC)(CC)CC.[C-]#[O+].[C-]#[O+].[C-]#[O+].[Cl-].[Cl-].[Cl-].[Ru+2] [Compound 2, [Et4N][Ru(CO)3Cl3]]
- Solubility in water [1]: 6.78 mM
- IC50 [2]: > 1600 µM
- IC50 [3]: > 1600 µM
- IC50 [4]: > 1600 µM
- cytotoxicity to cancer cell lines [5]: non-cytotoxic in the investigated concentration range; also recorded: not active against any of the cancer cell lines

Compound: Cl.O=C(Nc1cc[n+](Cc2ccccc2)cc1)c1ccccn1 [[HL]Cl, 1-Benzyl-4-(picolinamido)pyridinium chloride]
- solubility ([1]; water): 12.3 mM
- IC50 ([2]; Homo sapiens, HCT-116): 20 µM
- IC50 ([3]; Homo sapiens): 54 µM
- IC50 ([4]; Homo sapiens): 30 µM

Compound: O=C(N=c1ccn(Cc2ccccc2)cc1)c1ccccn1.[C-]#[O+].[C-]#[O+].[C-]#[O+].[C-]#[O+].[C-]#[O+].[C-]#[O+].[Cl][Ru+].[Cl][Ru-]([Cl])[Cl] [pH-CORM-1, [Ru(CO)3Cl(L)][Ru(CO)3Cl3]]
- Solubility in water [1]: 1.56 mM
- IC50 [2]: ≤ 119 µM and 119 µM
- IC50 [3]: 164 µM
- IC50 [4]: 148 µM
- cytotoxicity to cancer cell lines [5]: moderately cytotoxic
